Read-outs that look alike come from different tables or passages of the source.
Tests used:
[1] = type: in vivo, Balb/C mice; conditions: docetaxel alone
Text: Finally, and of clinical significance are two other results. […] Indeed, animals treated with both CV787 and taxotere gain 24% more weight than untreated control animals (Table 2).

[2] = test system: LNCaP prostate tumor xenografts; type: in vivo, athymic Balb/c nu/nu mice; conditions: for change in tumor growth (FIG. 24): alone or with CV787 1×10^10 particles, 5 week period
[3] = test system: LNCaP prostate tumor xenografts; type: in vivo, athymic Balb/c nu/nu mice
Text: Six to eight week old athymic Balb/c nu/nu mice were obtained from Simonson Laboratories (Gilroy, Calif.) and acclimatized to laboratory conditions one week prior to tumor implantation. Xenografts were established by injecting 1×10^6 LNCaP cells, suspended in 100 μd of RPMI 1640 and 100 μd of matrigel, subcutaneously near the small of the back. When tumors reached between 400 mm^3 and 600 mm^3, mice were randomized into groups of four. The first group received 1×10^10 particles of CV787 at day 1 via the tail vein intravenously (i.v.). CV787 was diluted in 0.1 ml lyophilized buffer (5% sucrose, 1% glycine, 1 mM MgCl2, 0.05% Tween-80 in 10 mM Tris buffer) and injected into the tail vein using a 28-gauge needle. The second group was given taxane only. Paclitaxel was intraperitoneally administered at a dose of 20 mg/kg, daily for 4 days starting at day 2. Docetaxel was intravenously administered at a dose of 5 or 12.5 mg/kg at day 2, 5 and 8. The third group was given CV787 (i.v.) at day 1 and taxane at the same doses and schedule as the second group. As a control, a fourth group was treated with 0.1 ml of normal saline (i.e. control) i.v. at day 1 and then i.p. or i.v. for 4 days. The dose and route of administration of paclitaxel were selected according to studies in nude mice (Riondel, J. et al., 1986, Cancer Chemother Pharmacol. 17:137-42.) (Chahinian, A. P. et al., 1998, J. Surg. Onc. 67:104-111.). For docetaxel, the dose was selected based on the human clinical dose. (RPR Pharm. Inc., Collegeville, Pa.) and determined by a dose-range finding study in nude mice. Tumors were measured weekly in two dimensions by external caliper and volume was estimated by the formula [length (mm)×width (mm)^2]/2 (7). Animals were humanely killed when their tumor burden became excessive. Serum was harvested weekly by retro-orbital bleed. The difference in mean tumor volume between treatment groups was compared for statistical significance using the unpaired, two-tailed, t-test. Blood samples were collected at various time points for determining prostate-specific antigen. Federal and institutional guidelines for animal care were followed.
Six to eight week old athymic Balb/c nu/nu mice were obtained from Simonson Laboratories (Gilroy, Calif.) and acclimatized to laboratory conditions one week prior to tumor implantation. Xenografts were established by injecting 1×10^6 LNCaP cells subcutaneously near the small of the back suspended in 100 μl of RPMI 1640 and 100 μl of maltrigel (Collaborative Biochemical Products). When tumors reached between 400 mm^3 and 600 mm^3, mice were randomized in groups of four each to receive either 1×10^10 particles of CV787 at day 1 via the tail vein or paclitaxel, 20 mg/kg intraperitoneally (i.p.) daily for 4 days starting at day 2, versus controls treated with normal saline 0.1 ml i.v. at day 1 and then i.p. for 4 days. In addition, another group of mice received the combination of CV787 and paclitaxel at the same doses and schedule as above. CV787 was diluted in lyophilized buffer and injected into tail vein in a volume of 0.1 ml using a 28-gauge needle. The dose and route of administration of paclitaxel were selected according to studies in nude mice by Riondel et al., (1986) Cancer Chemother Pharmacol. 17:137. These authors conducted acute toxicity studies of paclitaxel in nude mice and selected the unit dose of 12.5 mg/kg daily, being 1/20th of the LD50 dose (lethal dose for 50% of animals). Tumors were measured weekly in two dimensions by external caliper and volume was estimated by the formula [length (mm)×width (mm)^2]/2. Animals were humanely killed when their tumor burden became excessive. Serum was harvested weekly by retro-orbital bleed. The difference in mean tumor volume between treatment groups was compared for statistical significance using the unpaired, two-tailed, t-test. Blood samples were collected at various time points for determining prostate-specific antigen (PSA). […]

[4] = test system: caspase-7, poly-ADP-ribose-polymerase, Fas/Fas-L, Bcl-2, Bcl-XL, Bax; experiment: Immunoblot of apoptosis related protein markers in treated LNCaP cells; type: cell-based, human; conditions: docetaxel 6.0 nM, CV787 MOI 0.5
Text: Enhanced chemiluminescence (ECL; Amersham Pharmacia) was used for detection. […] All antibodies were used according manufacturer's instruction.

[5] = test system: LNCaP (prostate carcinoma) cells; experiment: cells; type: cell-based, human; conditions: for cell survival: LNCaP, CV787 MOI 0.01
Protocol: In preliminary experiments, we examined the chemosensitivity to different agents, as well as the oncolytic effect of CV787 in the prostate carcinoma LNCaP cells. Cells were plated in 96-well plates at a density of 20,000 cells per well. […] […] Cells were incubated at 37° C. in 5% CO2 for an additional two days. Cell viability was measured using the MTT assay. Mosmann et al., (1983). Briefly, 50 μl of 1 mg/ml MTT vital dye (Sigma, St. Louis, Mo.) was added to each well and allowed to incubate for 3 h at 37° C. and 5% CO2. Then, plates were drained to remove untransformed MTT and blot. 100 μl of isopropanol was added to each well, the plate was incubated for 15 minutes and vigorously shaken (Microshaker II, Dynatech) in order to ensure solubilization of the blue formazan. The optical density of each well was quantitated using an automatic plate reader (Molecular Devices, Sunnyvale, Calif.) with a 560 nm test wavelength and 690 nm reference wavelength. Cell viability was defined as the ratio of the mean absorbance of 9 treatment wells minus the blank to the mean absorbance of 6 untreated matched controls minus the blank. […] Each experiment was performed at least twice.
To study potential synergy or enhancement in treatment when administering CV787 and chemotherapy in vitro, the effectiveness of the combined treatment at several concentrations of paclitaxel, ranging from 0-62.5 nM, […], with CV787 at various MOIs, ranging from 0-10 MOI, was evaluated in the prostate carcinoma LNCaP cells. Cells were treated with CV787 and paclitaxel or docetaxel and the cell viability was determined at various time points after treatment by an MTT assay, as shown in FIGS. 2-4. […] To determine whether the timing of administration for the testing articles affected the combined oncolytic effect, LNCaP cells were treated with paclitaxel for 24 hours before or after infection with CV787.
The protocols described above were used to screen a number of different chemotherapeutic agents from various classes of chemotherapeutics. […]

[6] = test system: LNCaP prostate tumor xenografts; experiment: LNCaP xenograft antitumor efficacy, intratumorally administered CV787 with paclitaxel; type: in vivo, athymic Balb/c nu/nu mice; conditions: 6 weeks after treatment
Protocol: Six to eight week old athymic Balb/c nu/nu mice were obtained from Simonson Laboratories (Gilroy, Calif.) and acclimatized to laboratory conditions one week prior to tumor implantation. Xenografts were established by injecting 1×10^6 LNCaP cells subcutaneously near the small of the back suspended in 100 μl of RPMI 1640 and 100 μl of maltrigel (Collaborative Biochemical Products). When tumors reached between 400 mm^3 and 600 mm^3, mice were randomized in groups of four each to receive either 1×10^10 particles of CV787 at day 1 via the tail vein or paclitaxel, 20 mg/kg intraperitoneally (i.p.) daily for 4 days starting at day 2, versus controls treated with normal saline 0.1 ml i.v. at day 1 and then i.p. for 4 days. […] Tumors were measured weekly in two dimensions by external caliper and volume was estimated by the formula [length (mm)×width (mm)^2]/2. […]
The in vivo antitumor efficacy of intratumorally administered CV787 and the interaction of CV787 in the combination with paclitaxel was assessed in the LNCaP mouse xenograft model as described above. […]
All treatment groups received identical injections of the active agent or vehicle control into both the tumor and peritoneum. Tumor volume was measured just before the injection of test articles and once a week for 6 weeks thereafter.

[7] = CV787 1×10^10 particles i.v. single dose, paclitaxel 20 mg/kg 4 doses

SMILES: CC(=O)O[C@@]12CO[C@@H]1C[C@H](O)[C@@]1(C)C(=O)[C@H](O)C3=C(C)[C@@H](OC(=O)[C@H](O)[C@@H](NC(=O)OC(C)(C)C)c4ccccc4)C[C@@](O)([C@@H](OC(=O)c4ccccc4)[C@H]21)C3(C)C [docetaxel]
- body weight [1]: transient weight loss
- relative tumor volume, % of baseline ([2]; four weeks after treatment, CV787 1×10^10 particles i.v. day 1, docetaxel 10 mg/kg i.v.): 49 % of baseline
- effect of single agent on tumor growth ([3]; CV787 1×10^10 particles i.v., docetaxel 5.0 mg/kg i.v.): stabilization of tumor growth
- minimum tumor volume, % of the original tumor volume ([3]; docetaxel 5 mg/kg alone, reached by week 1): approximately 50%
- course of tumor volume (FIG. 29) ([3]; docetaxel 5 mg/kg, CV787 1×10^10 particles (CV787 alone also 1×10^11 particles), 6 weeks): by week 6 has reached the starting tumor volume
- change of Bcl-2 expression [4]: did not observe a significant change
- IC50 ([5]; Homo sapiens, 120 h, LNCaP cells, day 5, dose-response curve analysis): 8.14 nM
- cell survival ([5]; day 7 post treatment, % of the control, docetaxel 3.12 nM 24 hour before virus): 95%

SMILES: CC(=O)O[C@H]1C(=O)[C@@]2(C)[C@H]([C@H](OC(=O)c3ccccc3)[C@]3(O)C[C@H](OC(=O)[C@H](O)[C@@H](NC(=O)c4ccccc4)c4ccccc4)C(C)=C1C3(C)C)[C@]1(OC(C)=O)CO[C@@H]1C[C@@H]2O [paclitaxel]
- change in tumor growth (FIG. 24) ([2]; paclitaxel 2 mg/kg): progressive enlargement of the tumor
- change in tumor growth (FIG. 24) ([2]; paclitaxel 10 mg/kg): merely arrests tumor growth
- average tumor volume ([6]; CV787 1×10^7 particles/mm^3 intratumoral day 1, paclitaxel 15 mg/kg daily for four days): 630 mm^3
- average tumor volume, % of baseline ([6]; CV787 1×10^7 particles/mm^3 intratumoral, paclitaxel 15 mg/kg): 166 % of baseline
- time after treatment at which the regression was produced [3, 7]: 2 weeks
- tumor regression produced [3, 7]: partial tumor regression
- tumor growth inhibition compared with the control group ([3]; day 21, CV787 1×10^10 particles, paclitaxel 20 mg/kg): 70%
- relative tumor volume, % of baseline ([3]; four weeks after treatment, CV787 1×10^10 particles i.v. day 1, paclitaxel 20 mg/kg i.p. daily for 4 days): 31 % of baseline
- relative tumor volume, % of baseline ([3]; ten weeks after treatment, CV787 1×10^10 particles i.v., paclitaxel 20 mg/kg): 149 % of baseline
- cell survival ([5]; 6 days after virus infection, paclitaxel 6.25 nM): 100%
